The text below walks through data of patent publication US11254686B1 (Corvus Pharmaceuticals, Inc., priority 2017, dated 2022).

For assay [1], the target named is adenosine A2A receptor (Homo sapiens (Human), UniProt P29274). Nature of the assay: Adenosine receptor activity assay (Table 1), A2A activity. Type of assay: biochemical. The note with it: read-out: Ave A2A cAMP IC50.
The target in assay [2] is adenosine A2B receptor (Homo sapiens (Human), UniProt P29275). Nature of the assay: Adenosine receptor activity assay (Table 1), A2B activity. It is filed as biochemical. To be noted: for Ratio: A2A activity to A2B activity (A2A/A2B); for IC50: read-out: Ave A2B cAMP IC50.
Chain of adenosine A2B receptor (P29275 whole entry): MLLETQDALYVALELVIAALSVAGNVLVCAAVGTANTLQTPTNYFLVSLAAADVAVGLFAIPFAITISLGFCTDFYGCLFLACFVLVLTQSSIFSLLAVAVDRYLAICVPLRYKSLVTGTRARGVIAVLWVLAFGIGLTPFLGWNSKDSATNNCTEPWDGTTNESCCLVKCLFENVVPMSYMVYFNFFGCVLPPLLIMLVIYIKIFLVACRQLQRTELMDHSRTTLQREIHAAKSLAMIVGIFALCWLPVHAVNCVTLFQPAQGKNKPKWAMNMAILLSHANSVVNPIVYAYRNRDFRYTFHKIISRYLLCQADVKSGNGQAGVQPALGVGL

Chain of adenosine A2A receptor (P29274 whole entry): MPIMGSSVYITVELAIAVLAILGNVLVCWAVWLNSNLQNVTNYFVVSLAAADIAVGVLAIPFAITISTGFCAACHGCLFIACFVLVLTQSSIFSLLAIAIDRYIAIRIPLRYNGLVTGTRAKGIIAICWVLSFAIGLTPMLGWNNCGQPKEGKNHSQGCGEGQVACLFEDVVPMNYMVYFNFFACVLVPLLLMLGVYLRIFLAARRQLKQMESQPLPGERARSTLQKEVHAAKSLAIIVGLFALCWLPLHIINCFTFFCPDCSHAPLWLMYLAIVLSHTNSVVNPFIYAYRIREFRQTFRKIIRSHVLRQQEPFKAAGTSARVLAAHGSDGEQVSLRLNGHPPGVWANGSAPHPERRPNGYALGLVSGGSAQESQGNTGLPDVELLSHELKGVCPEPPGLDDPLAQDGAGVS

A word on the IC50: it is the concentration that inhibits the measured activity by half. As to “2-(((5-Fluoropyridin-3-yl)methyl)amino)-N-((tetrahydro-2H-pyran-4-yl)methyl)thieno[3,2-d]pyrimidine-4-carboxamide [Example Z219]”, the IC50 in assay [1] lay in the range of 0.1 to 0.5 µM. In addition, in assay [2], the Ratio turned out to be 8.45 and the IC50 lay in the range of 0.01 to 0.05 µM.
For `C[C@H](NC(=O)c1nc(N[C@@H](C)c2cccnc2)nc2ccsc12)c1cccnc1` [Example Z1, N—((S)-1-(Pyridin-3-yl)ethyl)-2-(((S)-1-(pyridin-3-yl)ethyl)amino)thieno[3,2-d]pyrimidine-4-carboxamide], in that order: 0.05 to 0.1 µM, 0.55 and 0.1 to 0.5 µM.
Consider `C[C@H](Nc1nc(C(=O)N2CCC(C)(C)C2)c2sccc2n1)c1cccnc1` [Example Z3, (S)-(3,3-Dimethylpyrrolidin-1-yl)(2-((1-(pyridin-3-yl)ethyl)amino)thieno[3,2-d]pyrimidin-4-yl)methanone], for which the IC50 in assay [1] fell in the range of 0.1 to 0.5 µM. Moreover, in assay [2], the Ratio stood at 1.26 and the IC50 lay within 0.1 to 0.5 µM.
On to `O=C(NCc1cncnc1)c1nc(NCc2cncnc2)nc2ccsc12` [Example Z4, N-(Pyrimidin-5-ylmethyl)-2-((pyrimidin-5-ylmethyl)amino)thieno[3,2-d]pyrimidine-4-carboxamide], for which the IC50 in assay [1] was greater than 0.5 µM. In addition, in assay [2], the Ratio is on record as 0.95 and the IC50 was greater than 0.5 µM.
As to `O=C(c1nc(NCc2cncnc2)nc2ccsc12)N1CCCC1` [Example Z5, (2-((Pyrimidin-5-ylmethyl)amino)thieno[3,2-d]pyrimidin-4-yl)(pyrrolidin-1-yl)methanone], the IC50 in assay [1] was greater than 0.5 µM; in assay [2], 0.1 to 0.5 µM. Also, the Ratio in assay [2] was determined as 18.06.
For `C[C@H](Nc1nc(C(=O)NCc2cncnc2)c2sccc2n1)c1cccnc1` [Example Z6, (S)-2-((1-(Pyridin-3-yl)ethyl)amino)-N-(pyrimidin-5-ylmethyl)thieno[3,2-d]pyrimidine-4-carboxamide], in that order: greater than 0.5 µM, greater than 0.5 µM and 0.49.
`CC1(C)CCN(C(=O)c2nc(NCc3cncnc3)nc3ccsc23)C1` [Example Z7, (3,3-Dimethylpyrrolidin-1-yl)(2-((pyrimidin-5-ylmethyl)amino)thieno[3,2-d]pyrimidin-4-yl)methanone]: the IC50 in assay [1] was greater than 0.5 µM. Also, in assay [2], the Ratio turned out to be 0.57 and the IC50 is greater than 0.5 µM.
Turning to `C[C@H](Nc1nc(C(=O)N2CCOCC2)c2sccc2n1)c1cccnc1` [Example Z11, (S)-Morpholino(2-((1-(pyridin-3-yl)ethyl)amino)thieno[3,2-d]pyrimidin-4-yl)methanone], in assay [1], the IC50 is greater than 0.5 µM. Further, in assay [2], the Ratio is 4.88 and the IC50 is greater than 0.5 µM.
Regarding `COc1ccc(CNC(=O)c2nc(NCc3ccc(OC)nc3)nc3ccsc23)cn1` [Example Z12, N-((6-Methoxypyridin-3-yl)methyl)-2-(((6-methoxypyridin-3-yl)methyl)amino)thieno[3,2-d]pyrimidine-4-carboxamide], the IC50 in assay [1] was in the range of 0.05 to 0.1 µM. Also, in assay [2], the Ratio amounted to 0.15 and the IC50 is greater than 0.5 µM.
Taken in the same sequence, the figures for `C[C@H](Nc1nc(C(=O)N2CC3(COC3)C2)c2sccc2n1)c1cccnc1` [Example Z14, (S)-(2-((1-(Pyridin-3-yl)ethyl)amino)thieno[3,2-d]pyrimidin-4-yl)(2-oxa-6-azaspiro[3.3]heptan-6-yl)methanone] were 0.1 to 0.5 µM, 1.35 and 0.1 to 0.5 µM.
Taken in the same sequence, the figures for `O=C(NCc1cncc(F)c1)c1nc(NCc2cncc(F)c2)nc2ccsc12` [Example Z15, N-((5-Fluoropyridin-3-yl)methyl)-2-(((5-fluoropyridin-3-yl)methyl)amino)thieno[3,2-d]pyrimidine-4-carboxamide] were greater than 0.5 µM, 9.43 and 0.1 to 0.5 µM.
On to `COc1ccc(CNc2nc(C(=O)N3CCCC3)c3sccc3n2)cn1` [Example Z17, (2-(((6-Methoxypyridin-3-yl)methyl)amino)thieno[3,2-d]pyrimidin-4-yl)(pyrrolidin-1-yl)methanone], for which, in assay [1], the IC50 was 0.05 to 0.1 µM. In addition, in assay [2], the Ratio was determined as 0.19 and the IC50 is 0.1 to 0.5 µM.
Taken in the same sequence, the figures for `C[C@H](Nc1nc(C(=O)NCc2cncc(F)c2)c2sccc2n1)c1cccnc1` [Example Z20, (S)—N-((5-Fluoropyridin-3-yl)methyl)-2-((1-(pyridin-3-yl)ethyl)amino)thieno[3,2-d]pyrimidine-4-carboxamide] were 0.1 to 0.5 µM, 0.62 and 0.1 to 0.5 µM.
As for `CN(C(=O)c1nc(NCc2cncc(F)c2)nc2ccsc12)C1CCC(C)(C)C1` (stereo not shown) [Example Z22, N-(3,3-Dimethylcyclopentyl)-2-(((5-fluoropyridin-3-yl)methyl)amino)-N-methylthieno[3,2-d]pyrimidine-4-carboxamide], the IC50 in assay [1] and in assay [2] was greater than 0.5 µM in each case. Further, the Ratio in assay [2] amounted to 7.49.
For `CCC(NC(=O)c1nc(NC(CC)c2cccnc2)nc2ccsc12)c1cccnc1` (stereo not shown) [Example Z23, N-(1-(Pyridin-3-yl)propyl)-2-((1-(pyridin-3-yl)propyl)amino)thieno[3,2-d]pyrimidine-4-carboxamide], the IC50 in assay [1] and in assay [2] was greater than 0.5 µM in each case. The Ratio in assay [2] is given as 5.63.
`CCC(NC(=O)c1nc(N[C@@H](C)c2cccnc2)nc2ccsc12)c1cccnc1` (stereo partly drawn) [Example Z24, 2-(((S)-1-(Pyridin-3-yl)ethyl)amino)-N-(1-(pyridin-3-yl)propyl)thieno[3,2-d]pyrimidine-4-carboxamide]: the IC50 in assay [1] is greater than 0.5 µM. In assay [2], the Ratio was found to be 2.92 and the IC50 fell in the range of 0.1 to 0.5 µM.
For the compound `CCC(Nc1nc(C(=O)N2CCCC2)c2sccc2n1)c1cccnc1` (stereo not shown) [Example Z25, (2-((1-(Pyridin-3-yl)propyl)amino)thieno[3,2-d]pyrimidin-4-yl)(pyrrolidin-1-yl)methanone], the values for the IC50 in assay [1] and in assay [2] were 0.1 to 0.5 µM and 0.01 to 0.05 µM, respectively.
On to `CCC(Nc1nc(C(=O)N2CC[C@@H](OC)C2)c2sccc2n1)c1cccnc1` (stereo partly drawn) [Example Z26, ((R)-3-Methoxypyrrolidin-1-yl)(2-((1-(pyridin-3-yl)propyl)amino)thieno[3,2-d]pyrimidin-4-yl)methanone], for which the IC50 in assay [1] is 0.05 to 0.1 µM; in assay [2], 0.01 to 0.05 µM. Moreover, the Ratio in assay [2] came out at 2.58.
For `C[C@H](Nc1nc(C(=O)NCC2CCN(Cc3ccccc3)CC2)c2sccc2n1)c1cccnc1` [Example Z27, (S)—N-((1-benzylpiperidin-4-yl)methyl)-2-((1-(pyridin-3-yl)ethyl)amino)thieno[3,2-d]pyrimidine-4-carboxamide], in that order: 0.1 to 0.5 µM, 0.05 to 0.1 µM and 1.97.
For `C[C@H](Nc1nc(C(=O)N[C@H](C)c2cccnc2)c2sccc2n1)c1cccnc1` [Example Z30, N—((R)-1-(Pyridin-3-yl)ethyl)-2-(((S)-1-(pyridin-3-yl)ethyl)amino)thieno[3,2-d]pyrimidine-4-carboxamide], in that order: greater than 0.5 µM, 0.1 to 0.5 µM and 8.34.
Taken in the same sequence, the figures for `C[C@H](Nc1nc(C(=O)N2CCCCC2)c2sccc2n1)c1cccnc1` [Example Z31, (S)-Piperidin-1-yl(2-((1-(pyridin-3-yl)ethyl)amino)thieno[3,2-d]pyrimidin-4-yl)methanone] were greater than 0.5 µM, 0.1 to 0.5 µM and 40.00.
Regarding `COc1ccc(CNC(=O)c2nc(N[C@@H](C)c3cccnc3)nc3ccsc23)cc1OC` [Example Z33, (S)—N-(3,4-Dimethoxybenzyl)-2-((1-(pyridin-3-yl)ethyl)amino)thieno[3,2-d]pyrimidine-4-carboxamide], in assay [1], the IC50 is greater than 0.5 µM. In assay [2], the Ratio is given as 4.57 and the IC50 is greater than 0.5 µM.
For the compound `CCC(Nc1nc(C(=O)NCc2ccc(OC)nc2)c2sccc2n1)c1cccnc1` (stereo not shown) [Example Z83, N-((6-Methoxypyridin-3-yl)methyl)-2-((1-(pyridin-3-yl)propyl)amino)thieno[3,2-d]pyrimidine-4-carboxamide], the IC50 in assay [1] was in the range of 0.1 to 0.5 µM.
In the case of `COc1cncc(CNC(=O)c2nc(N[C@@H](C)c3ccccn3)nc3ccsc23)c1` [Example Z110, (S)—N-((5-Methoxypyridin-3-yl)methyl)-2-((1-(pyridin-2-yl)ethyl)amino)thieno[3,2-d]pyrimidine-4-carboxamide], in assay [2], the Ratio was 3.23 and the IC50 lay within 0.05 to 0.1 µM.
In the case of `COCC(Nc1nc(C(=O)N2CCC2)c2sccc2n1)c1cccnc1` (stereo not shown) [Example Z126, Azetidin-1-yl(2-((2-methoxy-1-(pyridin-3-yl)ethyl)amino)thieno[3,2-d]pyrimidin-4-yl)methanone], in assay [2], the IC50 was 0.01 to 0.05 µM.
The same measure, in the same setting: then `C[C@H](Nc1nc(C(=O)N2CC[C@@H](S(C)(=O)=O)C2)c2sccc2n1)c1ccccn1` [Example Z256], with 0.1 to 0.5 µM.
On to `C[C@H](Nc1nc(C(=O)N[C@H]2CC[C@@H](O)C2)c2sccc2n1)c1ccccn1` [Example Z332, N-((1S,3R)-3-Hydroxycyclopentyl)-2-(((S)-1-(pyridin-2-yl)ethyl)amino)thieno[3,2-d]pyrimidine-4-carboxamide], for which the IC50 in assay [1] was in the range of 0.1 to 0.5 µM.
Same read-out and setting: in the case of `C[C@H](Nc1nc(C(=O)NCCc2ccccc2O)c2sccc2n1)c1cncc(F)c1` [Example Z448, (S)-2-((1-(5-fluoropyridin-3-yl)ethyl)amino)-N-(2-hydroxyphen-ethyl)thieno[3,2-d]pyrimidine-4-carboxamide] it was 0.1 to 0.5 µM.
As to `CNCC1CN(C(=O)c2nc(N[C@@H](C)c3cncc(F)c3)nc3ccsc23)C1` [Example Z544, (S)-(2-((1-(5-Fluoropyridin-3-yl)ethyl)amino)thieno[3,2-d]pyrimidin-4-yl)(3-((methylamino)methyl)azetidin-1-yl)methanone], the IC50 in assay [2] is 0.1 to 0.5 µM.
